What follows are compounds tested on barnyard grass (assay: Test Example 3: herbicidal effect by foliage application, Wagner pot (Table 18, symbol H)). Conditions: amount of applied herbicide 320 g/ha.
Assay type: in vivo, barnyard grass (Echinochloa crus-galli)
Procedure, shortened: (§1)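 Plants were sown in alluvial soil held under 0.1–0.5 cm standing water and grown 14 days in a greenhouse at 25–30 °C. An emulsifiable formulation, water-diluted to the set dose, was then sprayed onto the foliage, and effects were scored three weeks later using previously defined criteria.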

SMILES | herbicidal effect on H: barnyard grass
COc1ccc(-c2sc3ccc(C)cc3c2-c2c(O)c(C)nn(C)c2=O)cc1OC [2-152] | 0 (Herbicidal rate of 5% or less (almost no effect))
COc1cc(F)ccc1-c1sc2ccc(N(C)C(C)=O)cc2c1-c1c(O)c(C)nn(C)c1=O [2-177] | 3 (Herbicidal rate of 40% or more and less than 70%)
Cc1nn(C)c(=O)c(-c2c(-c3cccc(SC(C)C)c3)sc3ccc(F)cc23)c1O [2-250] | 3 (Herbicidal rate of 40% or more and less than 70%)

Each compound was assayed on Chinese sprangletop (assay: Test Example 3: herbicidal effect by foliage application, Wagner pot (Table 18, symbol D)). Conditions: amount of applied herbicide 320 g/ha.
Assay type: in vivo, chinese sprangletop (Leptochloa chinensis)
Procedure, shortened: as §1

SMILES | herbicidal effect on D: Chinese sprangletop
COc1ccc(-c2sc3ccc(C)cc3c2-c2c(O)c(C)nn(C)c2=O)cc1OC [2-152] | 0 (Herbicidal rate of 5% or less (almost no effect))
COc1cc(F)ccc1-c1sc2ccc(N(C)C(C)=O)cc2c1-c1c(O)c(C)nn(C)c1=O [2-177] | 4 (Herbicidal rate of 70% or more and less than 90%)
Cc1nn(C)c(=O)c(-c2c(-c3cccc(SC(C)C)c3)sc3ccc(F)cc23)c1O [2-250] | 2 (Herbicidal rate of 20% or more and less than 40%)

Each compound was assayed on rice flat sedge (assay: Test Example 3: herbicidal effect by foliage application, Wagner pot (Table 18, symbol E)). Conditions: amount of applied herbicide 320 g/ha.
Assay type: in vivo, rice flat sedge (Cyperus iria)
Procedure, shortened: as §1

SMILES | herbicidal effect on E: rice flat sedge
COc1ccc(-c2sc3ccc(C)cc3c2-c2c(O)c(C)nn(C)c2=O)cc1OC [2-152] | 3 (Herbicidal rate of 40% or more and less than 70%)
COc1cc(F)ccc1-c1sc2ccc(N(C)C(C)=O)cc2c1-c1c(O)c(C)nn(C)c1=O [2-177] | 3 (Herbicidal rate of 40% or more and less than 70%)
Cc1nn(C)c(=O)c(-c2c(-c3cccc(SC(C)C)c3)sc3ccc(F)cc23)c1O [2-250] | 3 (Herbicidal rate of 40% or more and less than 70%)

These compounds were tested on southern crabgrass (assay: Test Example 5: herbicidal effect by foliage application, plastic box (Table 20, symbol F)). Conditions: foliage application, 320 g/ha, evaluated three weeks after application.
Assay type: in vivo, southern crabgrass (Digitaria ciliaris)
Procedure, shortened: (§2)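 Plants sown in sterilized diluvial soil and grown 14 days in a greenhouse at 25° C to 30° C, then sprayed on the foliage with the compound's emulsion diluted in water to a predetermined herbicide amount. Injury to weeds and crops scored three weeks after application on a visual rating scale.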

SMILES | herbicidal effect on F: southern crabgrass (criteria 0-5)
COc1ccc(-c2sc3ccc(C)cc3c2-c2c(O)c(C)nn(C)c2=O)cc1OC [2-152] | 0 (Herbicidal rate of 5% or less (almost no effect))
COc1cc(F)ccc1-c1sc2ccc(N(C)C(C)=O)cc2c1-c1c(O)c(C)nn(C)c1=O [2-177] | 0 (Herbicidal rate of 5% or less (almost no effect))
Cc1nn(C)c(=O)c(-c2c(-c3cccc(SC(C)C)c3)sc3ccc(F)cc23)c1O [2-250] | 0 (Herbicidal rate of 5% or less (almost no effect))

What follows are compounds tested on green foxtail (assay: Test Example 5: herbicidal effect by foliage application, plastic box (Table 20, symbol G)). Conditions: foliage application, 320 g/ha, evaluated three weeks after application.
Assay type: in vivo, green foxtail (Setaria viridis)
Procedure, shortened: as §2

SMILES | herbicidal effect on G: green foxtail (criteria 0-5)
COc1ccc(-c2sc3ccc(C)cc3c2-c2c(O)c(C)nn(C)c2=O)cc1OC [2-152] | 0 (Herbicidal rate of 5% or less (almost no effect))
COc1cc(F)ccc1-c1sc2ccc(N(C)C(C)=O)cc2c1-c1c(O)c(C)nn(C)c1=O [2-177] | 3 (Herbicidal rate of 40% or more and less than 70%)
Cc1nn(C)c(=O)c(-c2c(-c3cccc(SC(C)C)c3)sc3ccc(F)cc23)c1O [2-250] | 0 (Herbicidal rate of 5% or less (almost no effect))

The compounds below were run on barnyard grass (assay: Test Example 5: herbicidal effect by foliage application, plastic box (Table 20, symbol H)). Conditions: foliage application, 320 g/ha, evaluated three weeks after application.
Assay type: in vivo, barnyard grass (Echinochloa crus-galli)
Procedure, shortened: as §2

SMILES | herbicidal effect on H: barnyard grass (criteria 0-5)
COc1ccc(-c2sc3ccc(C)cc3c2-c2c(O)c(C)nn(C)c2=O)cc1OC [2-152] | 0 (Herbicidal rate of 5% or less (almost no effect))
COc1cc(F)ccc1-c1sc2ccc(N(C)C(C)=O)cc2c1-c1c(O)c(C)nn(C)c1=O [2-177] | 0 (Herbicidal rate of 5% or less (almost no effect))
Cc1nn(C)c(=O)c(-c2c(-c3cccc(SC(C)C)c3)sc3ccc(F)cc23)c1O [2-250] | 0 (Herbicidal rate of 5% or less (almost no effect))

The compounds below were run on wild oat (assay: Test Example 5: herbicidal effect by foliage application, plastic box (Table 20, symbol I)). Conditions: foliage application, 320 g/ha, evaluated three weeks after application.
Assay type: in vivo, wild oat (Avena fatua)
Procedure, shortened: as §2

SMILES | herbicidal effect on I: wild oat (criteria 0-5)
COc1ccc(-c2sc3ccc(C)cc3c2-c2c(O)c(C)nn(C)c2=O)cc1OC [2-152] | 0 (Herbicidal rate of 5% or less (almost no effect))
COc1cc(F)ccc1-c1sc2ccc(N(C)C(C)=O)cc2c1-c1c(O)c(C)nn(C)c1=O [2-177] | 0 (Herbicidal rate of 5% or less (almost no effect))
Cc1nn(C)c(=O)c(-c2c(-c3cccc(SC(C)C)c3)sc3ccc(F)cc23)c1O [2-250] | 2 (Herbicidal rate of 20% or more and less than 40%)

The compounds below were run on blackgrass (assay: Test Example 5: herbicidal effect by foliage application, plastic box (Table 20, symbol J)). Conditions: foliage application, 320 g/ha, evaluated three weeks after application.
Assay type: in vivo, blackgrass (Alopecurus myosuroides)
Procedure, shortened: as §2

SMILES | herbicidal effect on J: blackgrass (criteria 0-5)
COc1ccc(-c2sc3ccc(C)cc3c2-c2c(O)c(C)nn(C)c2=O)cc1OC [2-152] | 0 (Herbicidal rate of 5% or less (almost no effect))
COc1cc(F)ccc1-c1sc2ccc(N(C)C(C)=O)cc2c1-c1c(O)c(C)nn(C)c1=O [2-177] | 3 (Herbicidal rate of 40% or more and less than 70%)
Cc1nn(C)c(=O)c(-c2c(-c3cccc(SC(C)C)c3)sc3ccc(F)cc23)c1O [2-250] | 3 (Herbicidal rate of 40% or more and less than 70%)

These compounds were tested on Italian ryegrass (assay: Test Example 5: herbicidal effect by foliage application, plastic box (Table 20, symbol K)). Conditions: foliage application, 320 g/ha, evaluated three weeks after application.
Assay type: in vivo, Italian ryegrass (Lolium multiflorum)
Procedure, shortened: as §2

SMILES | herbicidal effect on K: Italian ryegrass (criteria 0-5)
COc1ccc(-c2sc3ccc(C)cc3c2-c2c(O)c(C)nn(C)c2=O)cc1OC [2-152] | 2 (Herbicidal rate of 20% or more and less than 40%)
COc1cc(F)ccc1-c1sc2ccc(N(C)C(C)=O)cc2c1-c1c(O)c(C)nn(C)c1=O [2-177] | 0 (Herbicidal rate of 5% or less (almost no effect))
Cc1nn(C)c(=O)c(-c2c(-c3cccc(SC(C)C)c3)sc3ccc(F)cc23)c1O [2-250] | 1 (Herbicidal rate of 5% or more and less than 20%)

Each compound was assayed on windgrass (assay: Test Example 5: herbicidal effect by foliage application, plastic box (Table 20, symbol L)). Conditions: foliage application, 320 g/ha, evaluated three weeks after application.
Assay type: in vivo, windgrass (Apera spica-venti)
Procedure, shortened: as §2

SMILES | herbicidal effect on L: windgrass (criteria 0-5)
COc1ccc(-c2sc3ccc(C)cc3c2-c2c(O)c(C)nn(C)c2=O)cc1OC [2-152] | 0 (Herbicidal rate of 5% or less (almost no effect))
COc1cc(F)ccc1-c1sc2ccc(N(C)C(C)=O)cc2c1-c1c(O)c(C)nn(C)c1=O [2-177] | 3 (Herbicidal rate of 40% or more and less than 70%)
Cc1nn(C)c(=O)c(-c2c(-c3cccc(SC(C)C)c3)sc3ccc(F)cc23)c1O [2-250] | 3 (Herbicidal rate of 40% or more and less than 70%)

What follows are compounds tested on velvetleaf (assay: Test Example 5: herbicidal effect by foliage application, plastic box (Table 20, symbol M)). Conditions: foliage application, 320 g/ha, evaluated three weeks after application.
Assay type: in vivo, velvetleaf (Abutilon theophrasti)
Procedure, shortened: as §2

SMILES | herbicidal effect on M: velvetleaf (criteria 0-5)
COc1ccc(-c2sc3ccc(C)cc3c2-c2c(O)c(C)nn(C)c2=O)cc1OC [2-152] | 0 (Herbicidal rate of 5% or less (almost no effect))
COc1cc(F)ccc1-c1sc2ccc(N(C)C(C)=O)cc2c1-c1c(O)c(C)nn(C)c1=O [2-177] | 3 (Herbicidal rate of 40% or more and less than 70%)
Cc1nn(C)c(=O)c(-c2c(-c3cccc(SC(C)C)c3)sc3ccc(F)cc23)c1O [2-250] | 2 (Herbicidal rate of 20% or more and less than 40%)

These compounds were tested on redroot pigweed (assay: Test Example 5: herbicidal effect by foliage application, plastic box (Table 20, symbol N)). Conditions: foliage application, 320 g/ha, evaluated three weeks after application.
Assay type: in vivo, redroot pigweed (Amaranthus retroflexus)
Procedure, shortened: as §2

SMILES | herbicidal effect on N: redroot pigweed (criteria 0-5)
COc1ccc(-c2sc3ccc(C)cc3c2-c2c(O)c(C)nn(C)c2=O)cc1OC [2-152] | 0 (Herbicidal rate of 5% or less (almost no effect))
COc1cc(F)ccc1-c1sc2ccc(N(C)C(C)=O)cc2c1-c1c(O)c(C)nn(C)c1=O [2-177] | 4 (Herbicidal rate of 70% or more and less than 90%)
Cc1nn(C)c(=O)c(-c2c(-c3cccc(SC(C)C)c3)sc3ccc(F)cc23)c1O [2-250] | 5 (Herbicidal rate of 90% or more (almost completely withered))

These compounds were tested on lambsquarters (assay: Test Example 5: herbicidal effect by foliage application, plastic box (Table 20, symbol O)). Conditions: foliage application, 320 g/ha, evaluated three weeks after application.
Assay type: in vivo, lambsquarters (Chenopodium album)
Procedure, shortened: as §2

SMILES | herbicidal effect on O: lambsquarters (criteria 0-5)
COc1ccc(-c2sc3ccc(C)cc3c2-c2c(O)c(C)nn(C)c2=O)cc1OC [2-152] | 0 (Herbicidal rate of 5% or less (almost no effect))
COc1cc(F)ccc1-c1sc2ccc(N(C)C(C)=O)cc2c1-c1c(O)c(C)nn(C)c1=O [2-177] | 3 (Herbicidal rate of 40% or more and less than 70%)
Cc1nn(C)c(=O)c(-c2c(-c3cccc(SC(C)C)c3)sc3ccc(F)cc23)c1O [2-250] | 3 (Herbicidal rate of 40% or more and less than 70%)

The compounds below were run on chickweed (assay: Test Example 5: herbicidal effect by foliage application, plastic box (Table 20, symbol P)). Conditions: foliage application, 320 g/ha, evaluated three weeks after application.
Assay type: in vivo, common chickweed (Stellaria media)
Procedure, shortened: as §2

SMILES | herbicidal effect on P: chickweed (criteria 0-5)
COc1ccc(-c2sc3ccc(C)cc3c2-c2c(O)c(C)nn(C)c2=O)cc1OC [2-152] | 5 (Herbicidal rate of 90% or more (almost completely withered))
COc1cc(F)ccc1-c1sc2ccc(N(C)C(C)=O)cc2c1-c1c(O)c(C)nn(C)c1=O [2-177] | 5 (Herbicidal rate of 90% or more (almost completely withered))
Cc1nn(C)c(=O)c(-c2c(-c3cccc(SC(C)C)c3)sc3ccc(F)cc23)c1O [2-250] | 5 (Herbicidal rate of 90% or more (almost completely withered))

What follows are compounds tested on persian speedwell (assay: Test Example 5: herbicidal effect by foliage application, plastic box (Table 20, symbol R)). Conditions: foliage application, 320 g/ha, evaluated three weeks after application.
Assay type: in vivo, Persian speedwell (Veronica persica)
Procedure, shortened: as §2

SMILES | herbicidal effect on R: persian speedwell (criteria 0-5)
COc1ccc(-c2sc3ccc(C)cc3c2-c2c(O)c(C)nn(C)c2=O)cc1OC [2-152] | 4 (Herbicidal rate of 70% or more and less than 90%)
COc1cc(F)ccc1-c1sc2ccc(N(C)C(C)=O)cc2c1-c1c(O)c(C)nn(C)c1=O [2-177] | 4 (Herbicidal rate of 70% or more and less than 90%)
Cc1nn(C)c(=O)c(-c2c(-c3cccc(SC(C)C)c3)sc3ccc(F)cc23)c1O [2-250] | 5 (Herbicidal rate of 90% or more (almost completely withered))

Source: US20230085307A1, “PYRIDAZINONE COMPOUND AND HERBICIDE” (NISSAN CHEMICAL CORPORATION, priority 2019, published 2023)
